Laboratory results taken from US11154522B2, “Compositions and methods for treating acne vulgaris” (priority 2016, dated 2021).
Read-outs that look alike come from different tables or passages of the source. Values belong to the molecule of their own block, whether it stands above or below them.

Experiment: Delivery of succinic acid to epidermis and dermis in presence of salicylic acid, Franz diffusion cells, different skin sample (Example 2)
Method: Skin from a single donor was stored frozen at −20° C. until needed. The skin was removed from the freezer, allowed to equilibrate to room temperature, and then cut to ˜2 cm×2 cm pieces before testing. FDCs with a 3.3 ml receiver volume and 0.55 cm^2 diffusional area were used. De-aerated isotonic phosphate buffered saline solution at pH 7.4 (PBS) containing 0.01% NaN3 was used as a solvent system for the receptor well medium (“Receptor Fluid”). Receptor wells were filled with the Receptor Fluid. The upper flange of the FDC receptor well was coated with vacuum grease to ensure a complete seal. Pieces of skin were mounted on the receptor cells, the conventional donor wells applied, and the assembly clamped together with uniform pressure using a pinch clamp. After assembly of the FDC, the skin was allowed to hydrate for 20 minutes in contact with the receptor fluid. Any FDCs that evidenced any leakage during this period were discarded. The integrity and quality of the skin was tested prior to application of the test formulations through measurement of the transdermal flux of tritiated water. Skin pieces evidencing an excessively high tritiated water flux were discarded and the tritiated water fluxes of accepted skin pieces was used to guide the distribution of formulation samples over the skin piece set. After removal of the tritiated water samples from the donor wells, the clamp and donor wells were removed. The skin was tapped dry with a KimWipe® and the receptor well solutions was replenished with fresh receptor well medium. Six replicates of each of the formulations were examined, in a batch of 36 FDC's; each test formulation was applied at a quasi-infinite dose of 20 μL cm^2 on skin maintained at 32° C. throughout the experiment. The Receptor Fluid was stirred with a magnetic stir bar throughout. A sample was abstracted from each receptor well at each of 4, 8 and 20 h, the receptor well being replenished with fresh Receptor Fluid. The concentration of succinic acid in each receptor well sample was assayed by a verified LC-MS analytical method. At the end of the experiment (20 h), residual formulation was removed from the skin exterior with a pipette. The FDCs were then be disassembled and the skin washed twice with EtOH-Water 50-50 and wiped dry with a KimWipe®. The successive topmost layers of the stratum corneum were removed by three (3) times applying cellophane tape to the skin and then pulling off the tape. Tape strippings were discarded, the material present in those peripheral layers being considered absorbed only superficially. The epidermal and dermal layers were separated, using mild heating if required. The epidermal and dermal sections were placed into 4 ml glass vials. DMSO was used as an extraction solvent (“Extraction Solvent”) for succinic acid from epidermal and dermal tissue. Two ml of the Extraction Solvent was added to each vial and the vials allowed to incubate for 24 h. At the end of the extraction period, aliquots of the Extraction Solvent were drawn, filtered and analyzed by LC-MS.
A topical formulation was prepared that contained 2% succinic acid, 1% salicylic acid (acne API), 15% ethanol, 15% propylene glycol, 3% Brij 30 and 15% of dimethyl isosorbide. The delivery of succinic to epidermis and dermis was tested as described in Example 1 in an independent experiment, using a different skin sample.

Molecule: Polysorbate 80
enhancement of delivery of succinic acid by other penetration enhancing molecules: did not result in enhanced delivery of succinic acid

Molecule: Capric tryiglyceride GTCC
enhancement of delivery of succinic acid by other penetration enhancing molecules: did not result in enhanced delivery of succinic acid

Molecule: CCOCCOCCO [Transcutol P]
enhancement of delivery of succinic acid by other penetration enhancing molecules: did not result in enhanced delivery of succinic acid

Molecule: Polysorbate 20
enhancement of delivery of succinic acid by other penetration enhancing molecules (present in the formulation instead of Brij30 and dimethyl isosorbide): did not result in enhanced delivery of succinic acid

succinic acid dose delivered to epidermis and dermis (human, 22 h, 2 %, pH 7.4): 33.22%
fold lower amount delivered in absence vs presence of Brij30 and dimethyl isosorbide (human, 22 h, pH 7.4): 4.4 fold
succinic acid dose delivered to epidermis and dermis (human, 22 h, pH 7.4): 7.51%
Molecule: O=C(O)CCC(=O)O [succinic acid]
